From patent US20080025962A1, “Remedy for Alzheimer's Disease” (AnGesMG,Inc., priority 2005, published 2008)
“Also recorded” adds a separate entry of the source.

Tests used:
[1] = test system: Human brain microvascular endothelial cells (arterial); test: Cell growth (cell count) of artery endothelial cells after Aβ stimulation; type: cell-based; conditions: for Cell count (relative to control as 100): Artery endothelial cells
Experimental: (§1) Human brain microvascular endothelial cells (HBMEC), human umbilical artery endothelial cells (HUAEC), human umbilical vein endothelial cells (HUVEC) and human aortic smooth muscle cells (HSMC) were obtained from Applied Cell Biology Research Institute. The cells were cultured using a modified MCDB131 medium supplemented with 2% or 10% FBS; those subcultured over 3 to 6 passages were used in the experiments described below.
(§2) Human brain microvascular endothelial cells (arterial and venous) cultured in a 12-well plate by the above-described method were stimulated with Aβ1-40 (0.05 μM, 0.5 μM and 5 μM), Aβ1-42 (0.5 μM), Aβ40-1 (0.5 μM), and control (no Aβ derivative added) for 72 hours. Aβ40-1 has the sequence reverse to that of Aβ1-40. This was used as the control peptide. Next, the number of cells was counted manually using a hemocytometer.

Akt = test: Western blot assay, Akt phosphorylation; type: cell-based, human; conditions: VEGF 10 ng/mL, Aβ1-40 0.5 μM, up to 40 minutes
Experimental: (§3) After the EC reached an 80% confluence, the medium was exchanged with an FBS-free fresh medium, and the EC was allowed to stand for 4 hours. Next, the cells were stimulated with human VEGF (10 ng/mL) and Aβ1-40 (0.5 μM) for up to 40 minutes. Total cell protein extract from human endothelial cells was separated on 12.5% SDS-polyacrylamide gel, and transferred to a nitrocellulose membrane. The membrane was subjected to Western blotting using antibodies against human Akt, phosphorylated Akt and phosphorylated ERK (Cell Signaling).

c57/BL6J mice = test: Matrigel plug transplant assay; type: in vivo, mouse
Experimental: Age-matched male c57/BL6J mice at 8 weeks of age were given 500 μL of Matrigel comprising 50 ng/mL VEGF and Aβ1-40 (5 μM), and 37 units of heparin by subcutaneous injection. Seven days later, the Matrigel plug was carefully recovered from each mouse, washed with phosphate-buffered saline (PBS) three times, and stored under freezing at −20° C. A section ([…]) of the frozen plug was fixed in ice-cooled acetone, and then stained with rat anti-mouse CD31 primary antibody (Pharmingen), FITC-conjugated anti-α smooth muscle actin antibody (Sigma) and Alexa-conjugated goat anti-rat secondary antibody (Molecular Probe).
Blood vessel density in the stained section was evaluated by fluorescence intensity using the NIH image software. The hemoglobin content in each plug was measured as an index of adult vascular regeneration.

[2] = test system: low-density monocytes from the spleen of a C57BL/6J mouse; test: Adult vascular stem cell differentiation assay; type: cell-based; conditions: Dil-acetylated LDL and BS-1 double staining; 4 days of cultivation
Experimental: Briefly, low-density monocytes were isolated from the spleen of a C57BL/6J mouse by a density centrifugation method using Histopaque-1083 (Sigma, St. Louis, Mo.). The cells were seeded onto a 4-well glass slide (Nunc International) coated with rat vitronectin (Sigma), and cultured in a medium comprising 2% heat inactivated defined FBS. The medium was supplemented with the endothelial growth supplementation kit, EGM-2MV single aliquot (Clonetics).
After 4 days of cultivation, the cells were incubated with the addition of acetylated LDL (Biomedical Technologies, Stoughton, Mass.), and stained with FITC-conjugated Griffonia simplicifolia lectin I (BS1-lectin) (Vector Laboratories). In 15 fields of vision at 40× magnification, the number of cells double stained with acLDL-Dil and BS1 was counted for each sample as endothelial precursors.

[3] = test system: Human brain microvascular endothelial cells (venous); test: Cell growth (cell count) of venous endothelial cells after Aβ stimulation; type: cell-based; conditions: 72 hours
Experimental: as §1, §2

Human SMC = test: ELISA assay of VEGF level in SMC culture; type: cell-based; conditions: 48 hours after stimulation
Experimental: as §1
Human SMC was cultured in a 12-well culture plate of an MCDB medium comprising 10% FBS. 48 hours after Aβ1-40 stimulation, the VEGF level in each well was tested by enzyme immunoassay (R&D System).

ERK = test: Western blot assay, ERK phosphorylation; type: cell-based, human; conditions: VEGF 10 ng/mL, Aβ1-40 0.5 μM, up to 40 minutes
Experimental: as §3

[4] = test system: Human umbilical artery endothelial cells; test: EC vessel formation on Matrigel, artery endothelial cells; type: cell-based; conditions: for Full-length of cells on Matrigel, Mean value: Artery endothelial cells, 72 hours stimulation, 18 hours on Matrigel
Experimental: as §1
(§4) Human umbilical artery endothelial cells and human umbilical vein endothelial cells were stimulated with Aβ1-40 (0.5 μM and 5 μM), Aβ40-1 (0.5 μM), and control (no Aβ derivative added) for 72 hours; after reaching an 80% confluence, endothelial cells were then washed with PBS, trypsinated, and cultured on a 6-well culture plate coated with Matrigel basal membrane matrix (Becton Dickinson Labware) for 18 hours. The cells on the Matrigel were photographed, and the full-length was measured using an NIH image analyzer.
(§5) The unit of measurement is in pixel.

endothelial cells = test: Endothelial cell migration, Boyden chamber assay; type: cell-based, human; conditions: VEGF 10 ng/ml; for Effect on endothelial migration: Boyden chamber
Experimental: as §1
Next, endothelial cell migration was examined using Boyden chamber assay. Briefly, an EBM-2 medium comprising VEGF (10 ng/ml), Aβ1-40 (0.5 μM and 5 μM)+VEGF (10 ng/ml), Aβ40-1 (0.5 μM)+VEGF (10 ng/ml), 10% FBS or control (no Aβ derivative added) was placed in the lower section of a chamber. 5×10^4 endothelial cells (in 50 μL of EBM-2 supplemented with 0.5% bovine serum albumin) were seeded into the upper section of the chamber. Cell migration was measured by counting the cells in four highly magnified fields of vision (×40). Three experiments were performed for each group. (mean ±standard deviation: P<0.05)
The unit of measurement is in cell count/field of vision.

[5] = test system: human umbilical vein endothelial cells; test: EC vessel formation on Matrigel, vein endothelial cells; type: cell-based; conditions: 72 hours stimulation, 18 hours on Matrigel
Experimental: as §1, §4, §5

[6] = Matrigel plug with 50 ng/mL VEGF and Aβ1-40 (5 μM), subcutaneous, seven days

Substance: Aβ1-42: β-amyloid species longer than Aβ1-40 by two residues on the C-terminal side
- Toxic effect on endothelial cells (necrotized cells observed) ([1]; 0.5 μM, 72 hours, FIG. 2): toxic effect on endothelial cells

Substance: β-amyloid 1-40 [Aβ1-40]
- Intracellular Akt phosphorylation (Akt): inhibited
- Blood vessel density, Mean value (c57/BL6J mice; [6]): 825.800 pixel
- Hemoglobin content, Mean value (c57/BL6J mice; [6]): 0.084 OD 450/tissue mg
- Effect on adult vascular regeneration in vivo (c57/BL6J mice; Matrigel plug, mice): suppressive effect on adult vascular regeneration in vivo
- Effect on growth and differentiation of vascular stem/precursor cells [2]: inhibitory effect on the differentiation of vascular stem cells; also recorded: suppressed the growth and differentiation of the cultured vascular precursor cells
- Cell count (relative to control as 100) ([3]; 0.05 μm): 80 ± 18.987
- Cell count (relative to control as 100) ([3]; 0.5 μm): 73 ± 11.392
- Cell count (relative to control as 100) ([3]; 5 μm): 70 ± 5.968
- Effect on VEGF secretion from VSMC (Human SMC): no direct effect on VEGF secretion from VSMC
- VEGF level, Mean value (Human SMC; DSF, enzyme immunoassay): 0.080
- ERK phosphorylation caused by VEGF (ERK): no effect on the ERK phosphorylation caused by VEGF
- Full-length of cells on Matrigel, Mean value ([4]; 0.5 μm): 8719.333 pixel
- Full-length of cells on Matrigel, Mean value ([4]; 5 μm): 7951.167 pixel
- Effect on EC vessel formation on Matrigel ([4]; text statement for Tables 2 and 3): suppressed EC vessel formation on Matrigel
- Cell count (relative to control as 100) ([1]; 0.05 μm, 72 hours): 78 ± 9.481
- Cell count (relative to control as 100) ([1]; 0.5 μm, 72 hours): 75 ± 8.011
- Cell count (relative to control as 100) ([1]; 5 μm, 72 hours): 73 ± 11.699
- Effect on growth of human brain microvascular endothelial cells ([1]; text statement for arterial and venous cells, more conspicuous in arteries): suppressed the growth of human brain microvascular endothelial cells
- Effect on endothelial migration (endothelial cells): the effect was inhibited
- Full-length of cells on Matrigel, Mean value ([5]; 0.5 μm): 10599.000 pixel
- Full-length of cells on Matrigel, Mean value ([5]; 5 μm): 9884.333 pixel

Substance: vascular endothelial growth factor [VEGF]
- Intracellular Akt phosphorylation (Akt): stimulated
- Effect on endothelial migration (endothelial cells): endothelial migration was caused by vasculogenesis by VEGF
- Cell migration, Mean value (endothelial cells; substance in lower section of chamber, Aβ1-40 0.5 μM and 5 μM, Aβ40-1 0.5 μM): 100.018 cell count/field of vision
